{
  "source": "ChEMBL document CHEMBL1287713",
  "about": "“Discovery and selectivity-profiling of 4-benzylamino 1-aza-9-oxafluorene derivatives as lead structures for IGF-1R inhibitors” (Bioorg Med Chem Lett, 2010)",
  "key": {"[1]": {"target": "Insulin-like growth factor 1 receptor (Homo sapiens, UniProt P08069)", "sequence (P08069 31-736 limits assumed)": "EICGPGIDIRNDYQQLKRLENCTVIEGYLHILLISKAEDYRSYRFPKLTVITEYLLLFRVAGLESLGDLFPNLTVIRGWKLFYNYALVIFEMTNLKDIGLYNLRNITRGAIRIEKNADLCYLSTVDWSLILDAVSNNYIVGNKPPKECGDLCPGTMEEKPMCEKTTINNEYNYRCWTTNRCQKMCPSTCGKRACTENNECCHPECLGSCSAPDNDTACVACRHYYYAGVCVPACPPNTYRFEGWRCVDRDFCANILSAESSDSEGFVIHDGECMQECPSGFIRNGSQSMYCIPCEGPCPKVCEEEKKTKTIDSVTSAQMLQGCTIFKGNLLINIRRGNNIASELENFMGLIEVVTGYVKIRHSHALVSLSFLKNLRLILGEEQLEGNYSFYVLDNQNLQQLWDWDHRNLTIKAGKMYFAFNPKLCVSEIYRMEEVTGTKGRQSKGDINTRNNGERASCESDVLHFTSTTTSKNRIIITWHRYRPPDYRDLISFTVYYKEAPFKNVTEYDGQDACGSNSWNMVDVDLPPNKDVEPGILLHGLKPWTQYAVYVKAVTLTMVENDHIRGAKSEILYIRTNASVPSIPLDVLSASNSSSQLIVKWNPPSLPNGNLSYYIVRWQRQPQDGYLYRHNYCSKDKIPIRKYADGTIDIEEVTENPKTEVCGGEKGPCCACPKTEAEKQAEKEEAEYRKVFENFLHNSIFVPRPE", "sequence (P08069 741-1367 limits assumed)": "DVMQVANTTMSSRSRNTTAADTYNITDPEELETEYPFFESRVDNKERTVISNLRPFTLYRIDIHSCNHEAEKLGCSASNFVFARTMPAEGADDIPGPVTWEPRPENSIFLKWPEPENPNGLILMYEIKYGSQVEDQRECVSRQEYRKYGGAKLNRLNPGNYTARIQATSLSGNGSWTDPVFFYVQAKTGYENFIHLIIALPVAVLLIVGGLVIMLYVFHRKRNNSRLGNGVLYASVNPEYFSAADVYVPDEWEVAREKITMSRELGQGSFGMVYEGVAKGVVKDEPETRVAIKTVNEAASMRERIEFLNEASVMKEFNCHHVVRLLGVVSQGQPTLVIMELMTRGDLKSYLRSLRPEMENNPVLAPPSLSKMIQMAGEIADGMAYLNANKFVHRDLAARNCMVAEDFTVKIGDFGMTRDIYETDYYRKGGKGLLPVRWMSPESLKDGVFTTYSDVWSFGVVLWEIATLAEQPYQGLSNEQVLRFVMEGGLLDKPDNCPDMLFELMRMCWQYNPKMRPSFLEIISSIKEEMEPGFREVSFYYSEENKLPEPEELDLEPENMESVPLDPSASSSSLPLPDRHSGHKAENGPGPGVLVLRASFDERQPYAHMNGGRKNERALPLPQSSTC", "test": "Inhibition of IGF1R"}, "[2]": {"target": "Epidermal growth factor receptor (Homo sapiens, UniProt P00533)", "sequence (P00533 whole entry)": "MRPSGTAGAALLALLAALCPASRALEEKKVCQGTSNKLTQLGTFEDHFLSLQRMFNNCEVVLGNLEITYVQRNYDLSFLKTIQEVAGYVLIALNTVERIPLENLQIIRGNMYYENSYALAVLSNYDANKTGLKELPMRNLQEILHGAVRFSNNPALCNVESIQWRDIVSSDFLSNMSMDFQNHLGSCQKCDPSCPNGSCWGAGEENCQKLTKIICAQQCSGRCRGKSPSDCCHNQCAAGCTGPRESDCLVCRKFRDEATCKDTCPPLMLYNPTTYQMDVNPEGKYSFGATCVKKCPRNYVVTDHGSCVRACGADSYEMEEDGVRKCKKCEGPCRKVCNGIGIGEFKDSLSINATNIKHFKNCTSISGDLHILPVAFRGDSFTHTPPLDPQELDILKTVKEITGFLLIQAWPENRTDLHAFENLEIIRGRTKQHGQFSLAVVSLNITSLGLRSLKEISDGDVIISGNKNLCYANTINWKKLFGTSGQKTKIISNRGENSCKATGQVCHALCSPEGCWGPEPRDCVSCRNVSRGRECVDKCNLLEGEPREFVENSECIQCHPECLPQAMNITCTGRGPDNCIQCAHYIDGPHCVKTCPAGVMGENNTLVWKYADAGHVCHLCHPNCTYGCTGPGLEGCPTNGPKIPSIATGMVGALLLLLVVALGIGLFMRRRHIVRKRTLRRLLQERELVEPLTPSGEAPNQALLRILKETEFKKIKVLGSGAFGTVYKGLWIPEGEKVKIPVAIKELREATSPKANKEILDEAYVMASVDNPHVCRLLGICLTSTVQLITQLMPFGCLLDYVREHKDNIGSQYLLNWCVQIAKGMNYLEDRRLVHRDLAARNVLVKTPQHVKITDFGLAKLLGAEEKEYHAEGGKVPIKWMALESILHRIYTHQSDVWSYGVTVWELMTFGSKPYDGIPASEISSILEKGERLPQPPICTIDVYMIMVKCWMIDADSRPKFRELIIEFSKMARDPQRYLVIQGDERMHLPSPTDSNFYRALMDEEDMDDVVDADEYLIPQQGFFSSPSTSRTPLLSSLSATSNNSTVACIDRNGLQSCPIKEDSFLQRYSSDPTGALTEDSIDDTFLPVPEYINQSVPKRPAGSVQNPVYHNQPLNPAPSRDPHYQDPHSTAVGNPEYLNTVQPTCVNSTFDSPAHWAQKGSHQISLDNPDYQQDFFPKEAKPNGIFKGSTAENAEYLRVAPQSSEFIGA", "test": "Inhibition of EGFR"}, "[3]": {"target": "Vascular endothelial growth factor receptor 3 (Homo sapiens, UniProt P35916)", "sequence (P35916 whole entry)": "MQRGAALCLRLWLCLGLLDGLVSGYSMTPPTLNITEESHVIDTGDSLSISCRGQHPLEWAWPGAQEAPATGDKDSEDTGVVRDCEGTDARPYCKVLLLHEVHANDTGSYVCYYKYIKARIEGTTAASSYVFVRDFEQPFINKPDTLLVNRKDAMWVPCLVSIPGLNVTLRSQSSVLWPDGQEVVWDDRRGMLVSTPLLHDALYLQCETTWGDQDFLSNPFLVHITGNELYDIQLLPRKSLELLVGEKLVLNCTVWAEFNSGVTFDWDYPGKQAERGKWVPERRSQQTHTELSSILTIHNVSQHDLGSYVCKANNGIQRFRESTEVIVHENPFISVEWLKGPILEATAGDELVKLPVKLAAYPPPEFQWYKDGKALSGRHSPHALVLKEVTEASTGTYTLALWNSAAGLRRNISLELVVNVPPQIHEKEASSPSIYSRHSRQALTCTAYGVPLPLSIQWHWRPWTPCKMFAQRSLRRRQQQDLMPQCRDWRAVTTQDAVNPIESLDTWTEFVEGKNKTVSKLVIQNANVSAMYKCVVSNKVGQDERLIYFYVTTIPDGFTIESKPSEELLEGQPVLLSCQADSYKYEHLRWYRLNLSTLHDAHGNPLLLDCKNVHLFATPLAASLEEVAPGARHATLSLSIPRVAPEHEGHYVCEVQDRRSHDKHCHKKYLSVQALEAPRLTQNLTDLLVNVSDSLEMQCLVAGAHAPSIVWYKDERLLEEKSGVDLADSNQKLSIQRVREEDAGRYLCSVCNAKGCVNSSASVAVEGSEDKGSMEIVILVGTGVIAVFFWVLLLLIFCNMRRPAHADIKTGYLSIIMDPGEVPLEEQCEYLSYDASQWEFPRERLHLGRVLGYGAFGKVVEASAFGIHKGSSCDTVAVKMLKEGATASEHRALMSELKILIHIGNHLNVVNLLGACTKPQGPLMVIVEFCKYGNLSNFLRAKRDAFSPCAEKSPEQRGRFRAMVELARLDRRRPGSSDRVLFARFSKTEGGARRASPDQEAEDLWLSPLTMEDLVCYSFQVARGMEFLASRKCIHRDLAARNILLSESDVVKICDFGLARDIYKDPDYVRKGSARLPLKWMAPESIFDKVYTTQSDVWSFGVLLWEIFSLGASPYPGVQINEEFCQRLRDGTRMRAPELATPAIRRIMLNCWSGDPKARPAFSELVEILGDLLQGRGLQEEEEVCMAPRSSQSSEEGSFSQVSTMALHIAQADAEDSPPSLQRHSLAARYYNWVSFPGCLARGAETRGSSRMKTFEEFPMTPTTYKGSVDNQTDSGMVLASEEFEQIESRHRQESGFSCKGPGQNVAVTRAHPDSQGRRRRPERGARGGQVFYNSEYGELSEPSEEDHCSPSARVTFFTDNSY", "test": "Inhibition of VEGFR3"}, "[4]": {"target": "Vascular endothelial growth factor receptor 2 (Homo sapiens, UniProt P35968)", "test": "Inhibition of VEGFR2"}, "[5]": {"test": "Growth inhibition of human NCI60 cells by SBR assay", "type": "functional"}, "[6]": {"test": "Cytotoxicity against human NCI60 cells by SBR assay", "type": "functional"}, "[7]": {"target": "Tyrosine-protein kinase ABL1 (Homo sapiens, UniProt P00519)", "test": "Inhibition of human ABL1"}, "[8]": {"target": "Tyrosine-protein kinase ABL2 (Homo sapiens, UniProt P42684)", "test": "Inhibition of human ABL2"}, "Focal adhesion kinase 1": {"target": "Focal adhesion kinase 1 (Homo sapiens, UniProt Q05397)", "test": "Inhibition of human FAK"}, "Insulin receptor": {"target": "Insulin receptor (Homo sapiens, UniProt P06213)", "test": "Inhibition of human InsR"}, "[9]": {"target": "Insulin receptor-related protein (Homo sapiens, UniProt P14616)", "test": "Inhibition of human InsRR"}, "Angiopoietin-1 receptor": {"target": "Angiopoietin-1 receptor (Homo sapiens, UniProt Q02763)", "test": "Inhibition of human TIE2"}, "[10]": {"target": "Interleukin-1 receptor-associated kinase 1 (Homo sapiens, UniProt P51617)", "test": "Inhibition of human IRAK1"}, "LIM domain kinase 1": {"target": "LIM domain kinase 1 (Homo sapiens, UniProt P53667)", "sequence (P53667 whole entry, the tested form may be a part)": "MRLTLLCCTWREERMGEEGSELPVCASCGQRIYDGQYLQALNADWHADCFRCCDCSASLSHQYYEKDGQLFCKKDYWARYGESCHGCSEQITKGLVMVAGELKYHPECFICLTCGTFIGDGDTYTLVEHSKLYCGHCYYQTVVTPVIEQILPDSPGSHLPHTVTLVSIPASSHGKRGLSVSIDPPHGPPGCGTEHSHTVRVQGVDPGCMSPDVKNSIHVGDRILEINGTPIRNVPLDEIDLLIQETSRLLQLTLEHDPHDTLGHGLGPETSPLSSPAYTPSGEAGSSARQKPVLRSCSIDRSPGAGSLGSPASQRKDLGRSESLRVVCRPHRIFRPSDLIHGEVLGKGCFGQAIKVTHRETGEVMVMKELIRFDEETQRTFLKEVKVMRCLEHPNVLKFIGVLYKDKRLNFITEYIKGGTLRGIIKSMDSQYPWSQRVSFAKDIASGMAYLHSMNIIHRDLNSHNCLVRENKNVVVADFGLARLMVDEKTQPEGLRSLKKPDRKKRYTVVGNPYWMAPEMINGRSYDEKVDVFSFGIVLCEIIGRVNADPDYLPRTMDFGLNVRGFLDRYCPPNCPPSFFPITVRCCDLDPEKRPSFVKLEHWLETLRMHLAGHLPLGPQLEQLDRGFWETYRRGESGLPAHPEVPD", "test": "Inhibition of human LIMK1"}, "[11]": {"target": "Cyclin-dependent kinase 4/cyclin D1 (Homo sapiens, UniProt P11802)", "test": "Inhibition of human CDK4/Cyclin D1", "type": "protein-complex assay"}, "CDK6/cyclin D1": {"target": "CDK6/cyclin D1 (Homo sapiens, UniProt Q00534)", "test": "Inhibition of human CDK6/Cyclin D1", "type": "protein-complex assay"}, "[12]": {"target": "Cyclin-dependent kinase 5/CDK5 activator 1 (Homo sapiens, UniProt Q00535)", "test": "Inhibition of human CDK5/p25", "type": "protein-complex assay"}, "[13]": {"target": "Dual specificity protein kinase CLK1 (Homo sapiens, UniProt P49759)", "test": "Inhibition of human CLK1"}, "[14]": {"target": "Dual specificity tyrosine-phosphorylation-regulated kinase 1A (Homo sapiens, UniProt Q13627)", "test": "Inhibition of human DYRK1A"}, "[15]": {"target": "Homeodomain-interacting protein kinase 1 (Homo sapiens, UniProt Q86Z02)", "test": "Inhibition of human HIPK1"}, "Aurora kinase A": {"target": "Aurora kinase A (Homo sapiens, UniProt O14965)", "test": "Inhibition of human Aurora A"}, "Aurora kinase C": {"target": "Aurora kinase C (Homo sapiens, UniProt Q9UQB9)", "sequence (Q9UQB9 whole entry)": "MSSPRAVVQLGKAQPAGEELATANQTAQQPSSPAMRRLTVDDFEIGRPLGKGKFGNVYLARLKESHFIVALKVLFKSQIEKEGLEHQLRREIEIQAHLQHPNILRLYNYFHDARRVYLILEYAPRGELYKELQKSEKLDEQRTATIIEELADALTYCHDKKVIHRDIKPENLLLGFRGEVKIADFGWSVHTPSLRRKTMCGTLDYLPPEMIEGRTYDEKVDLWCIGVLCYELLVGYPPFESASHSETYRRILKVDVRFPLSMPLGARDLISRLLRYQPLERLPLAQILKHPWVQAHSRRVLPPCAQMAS", "test": "Inhibition of human Aurora C"}, "[16]": {"target": "Protein kinase C gamma type (Homo sapiens, UniProt P05129)", "test": "Inhibition of human PKC-gamma"}, "[17]": {"target": "Protein kinase C iota type (Homo sapiens, UniProt P41743)", "test": "Inhibition of human PKC-iota"}, "[18]": {"target": "Mitogen-activated protein kinase 3 (Homo sapiens, UniProt P27361)", "test": "Inhibition of human ERK1"}, "[19]": {"target": "Mitogen-activated protein kinase 14 (Homo sapiens, UniProt Q16539)", "test": "Inhibition of human p38-alpha"}, "Misshapen-like kinase 1": {"target": "Misshapen-like kinase 1 (Homo sapiens, UniProt Q8N4C8)", "test": "Inhibition of human INK1"}, "[20]": {"target": "Serine/threonine-protein kinase VRK1 (Homo sapiens, UniProt Q99986)", "test": "Inhibition of human VRK1"}, "Wee1-like protein kinase": {"target": "Wee1-like protein kinase (Homo sapiens, UniProt P30291)", "test": "Inhibition of human WEE1"}, "[21]": {"target": "Serine/threonine-protein kinase Nek3 (Homo sapiens, UniProt P51956)", "test": "Inhibition of human Nek3"}, "[22]": {"target": "Serine/threonine-protein kinase PLK1 (Homo sapiens, UniProt P53350)", "test": "Inhibition of human PLK1"}},
  "data": [
    {"molecule": "c1ccc(CCNc2ccnc3oc4ccccc4c23)cc1", "values": [
      {"measurement": "Ki", "setting": "[1]", "value": 2.11, "unit": "µM"},
      {"measurement": "Ki", "setting": "[2]", "value": 3.45, "unit": "µM"},
      {"measurement": "Ki", "setting": "[3]", "value": 9.39, "unit": "µM"},
      {"measurement": "Ki", "setting": "[4]", "value": 2.01, "unit": "µM"}
    ]},
    {"molecule": "c1ccc(CNc2ccnc3oc4ccccc4c23)cc1", "values": [
      {"measurement": "Ki", "setting": "[1]", "value": 0.37, "unit": "µM"},
      {"measurement": "Ki", "setting": "[2]", "value": 0.59, "unit": "µM"},
      {"measurement": "Ki", "setting": "[3]", "value": 1.09, "unit": "µM"},
      {"measurement": "Ki", "setting": "[4]", "value": 0.47, "unit": "µM"}
    ]},
    {"molecule": "Clc1ccc(CNc2ccnc3oc4ccccc4c23)cc1", "values": [
      {"measurement": "Ki", "setting": "[1]", "value": 0.11, "unit": "µM"},
      {"measurement": "Ki", "setting": "[2]", "value": 0.5, "unit": "µM"},
      {"measurement": "Ki", "setting": "[3]", "value": 0.68, "unit": "µM"},
      {"measurement": "Ki", "setting": "[4]", "value": 0.18, "unit": "µM"},
      {"measurement": "GI50", "setting": "[5]", "value": 33.9, "unit": "µM"},
      {"measurement": "LC50", "setting": "[6]", "value": "> 100", "unit": "µM"}
    ]},
    {"molecule": "Clc1cccc(CNc2ccnc3oc4ccccc4c23)c1", "values": [
      {"measurement": "Ki", "setting": "[1]", "value": 0.58, "unit": "µM"},
      {"measurement": "Ki", "setting": "[2]", "value": "> 1000", "unit": "µM"},
      {"measurement": "Ki", "setting": "[3]", "value": "> 1000", "unit": "µM"},
      {"measurement": "Ki", "setting": "[4]", "value": "> 1000", "unit": "µM"}
    ]},
    {"molecule": "CCc1c2c(nc3ccc(OC(=O)N4CCC(N5CCCCC5)CC4)cc13)-c1cc3c(c(=O)n1C2)COC(=O)[C@]3(O)CC", "note": "[IRINOTECAN]", "values": [
      {"measurement": "GI50", "setting": "[5]", "value": 14.1, "unit": "µM"}
    ]},
    {"molecule": "c1cncc(CNc2ccnc3oc4ccccc4c23)c1", "values": [
      {"measurement": "Ki", "setting": "[1]", "value": "> 1000", "unit": "µM"},
      {"measurement": "Ki", "setting": "[2]", "value": "> 1000", "unit": "µM"},
      {"measurement": "Ki", "setting": "[3]", "value": "> 1000", "unit": "µM"},
      {"measurement": "Ki", "setting": "[4]", "value": "> 1000", "unit": "µM"}
    ]},
    {"molecule": "COc1cc([C@@H]2c3cc4c(cc3[C@@H](O[C@@H]3O[C@@H]5CO[C@@H](C)O[C@H]5[C@H](O)[C@H]3O)[C@H]3COC(=O)[C@H]23)OCO4)cc(OC)c1O", "note": "[ETOPOSIDE]", "values": [
      {"measurement": "GI50", "setting": "[5]", "value": 38.9, "unit": "µM"}
    ]},
    {"molecule": "c1ccc2c(CNc3ccnc4oc5ccccc5c34)cccc2c1", "values": [
      {"measurement": "Ki", "setting": "[1]", "value": 0.57, "unit": "µM"},
      {"measurement": "Ki", "setting": "[2]", "value": 0.68, "unit": "µM"},
      {"measurement": "Ki", "setting": "[3]", "value": 1.09, "unit": "µM"},
      {"measurement": "Ki", "setting": "[4]", "value": 0.3, "unit": "µM"}
    ]},
    {"molecule": "N[C@@H](Cc1ccc(N(CCCl)CCCl)cc1)C(=O)O", "values": [
      {"measurement": "GI50", "setting": "[5]", "value": 33.1, "unit": "µM"}
    ]},
    {"molecule": "COc1ccc(CNc2ccnc3oc4ccccc4c23)cc1", "values": [
      {"measurement": "Ki", "setting": "[1]", "value": 0.15, "unit": "µM"},
      {"measurement": "Ki", "setting": "[3]", "value": "> 1000", "unit": "µM"},
      {"measurement": "Ki", "setting": "[4]", "value": "> 1000", "unit": "µM"},
      {"measurement": "IC50", "setting": "[7]", "value": 392, "unit": "µM"},
      {"measurement": "Ki", "setting": "[8]", "value": "> 1000", "unit": "µM"},
      {"measurement": "IC50", "setting": "Focal adhesion kinase 1", "value": 194, "unit": "µM"},
      {"measurement": "IC50", "setting": "Insulin receptor", "value": 622, "unit": "µM"},
      {"measurement": "IC50", "setting": "[9]", "value": 182, "unit": "µM"},
      {"measurement": "Ki", "setting": "Angiopoietin-1 receptor", "value": "> 1000", "unit": "µM"},
      {"measurement": "Ki", "setting": "[10]", "value": "> 1000", "unit": "µM"},
      {"measurement": "IC50", "setting": "LIM domain kinase 1", "value": 759, "unit": "µM"},
      {"measurement": "IC50", "setting": "[11]", "value": 376, "unit": "µM"},
      {"measurement": "IC50", "setting": "CDK6/cyclin D1", "value": 129, "unit": "µM"},
      {"measurement": "Ki", "setting": "[12]", "value": "> 1000", "unit": "µM"},
      {"measurement": "Ki", "setting": "[13]", "value": "> 1000", "unit": "µM"},
      {"measurement": "Ki", "setting": "[14]", "value": "> 1000", "unit": "µM"},
      {"measurement": "Ki", "setting": "[15]", "value": "> 1000", "unit": "µM"},
      {"measurement": "Ki", "setting": "Aurora kinase A", "value": "> 1000", "unit": "µM"},
      {"measurement": "Ki", "setting": "Aurora kinase C", "value": "> 1000", "unit": "µM"},
      {"measurement": "Ki", "setting": "[16]", "value": "> 1000", "unit": "µM"},
      {"measurement": "Ki", "setting": "[17]", "value": "> 1000", "unit": "µM"},
      {"measurement": "Ki", "setting": "[18]", "value": "> 1000", "unit": "µM"},
      {"measurement": "Ki", "setting": "[19]", "value": "> 1000", "unit": "µM"},
      {"measurement": "Ki", "setting": "Misshapen-like kinase 1", "value": "> 1000", "unit": "µM"},
      {"measurement": "IC50", "setting": "[20]", "value": 129, "unit": "µM"},
      {"measurement": "Ki", "setting": "Wee1-like protein kinase", "value": "> 1000", "unit": "µM"},
      {"measurement": "Ki", "setting": "[21]", "value": "> 1000", "unit": "µM"},
      {"measurement": "IC50", "setting": "[22]", "value": 271, "unit": "µM"}
    ]}
  ]
}
